# Reference: US7592467B2, “Inhibitors of prolyl endopeptidase” (Probiodrug AG, priority 2005, dated 2009)
# Assays:
# [1] = target: T1, Recombinant human prolyl oligopeptidase (Homo sapiens, UniProt P48147); assay: Determination of IC50- and Ki-values of PEP-inhibitors (chromogenic substrate Z-Gly-Pro-pNA); type: biochemical; details: substrate Z-Gly-Pro-pNA 0.15 mM, HEPES buffer pH 7.6, 30° C.; n.i. = no inhibition
# T1 construct: made in house; host or cells: E. coli
# T1 sequence (P48147 1-710): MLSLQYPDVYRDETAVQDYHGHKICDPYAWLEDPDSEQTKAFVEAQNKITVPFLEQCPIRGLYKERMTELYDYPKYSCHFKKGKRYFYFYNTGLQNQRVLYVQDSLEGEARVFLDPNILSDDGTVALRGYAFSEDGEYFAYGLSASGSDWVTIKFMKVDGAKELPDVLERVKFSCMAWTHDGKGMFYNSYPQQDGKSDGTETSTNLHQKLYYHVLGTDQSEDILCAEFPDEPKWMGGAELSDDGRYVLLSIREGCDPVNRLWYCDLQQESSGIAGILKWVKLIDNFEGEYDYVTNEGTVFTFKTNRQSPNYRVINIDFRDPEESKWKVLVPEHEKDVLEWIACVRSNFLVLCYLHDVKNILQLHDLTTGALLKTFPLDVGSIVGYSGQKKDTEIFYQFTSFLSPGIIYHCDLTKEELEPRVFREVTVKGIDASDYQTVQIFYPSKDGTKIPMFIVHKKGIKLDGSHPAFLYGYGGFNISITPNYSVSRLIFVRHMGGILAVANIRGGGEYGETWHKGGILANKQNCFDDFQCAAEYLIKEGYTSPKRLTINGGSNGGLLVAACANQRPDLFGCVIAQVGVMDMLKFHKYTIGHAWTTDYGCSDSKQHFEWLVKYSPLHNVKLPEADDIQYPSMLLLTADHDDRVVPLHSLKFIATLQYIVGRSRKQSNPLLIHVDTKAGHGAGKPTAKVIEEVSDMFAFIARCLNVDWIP
# Protocol: Biological Evaluation, Determination of IC50- and Ki-Values of PEP-Inhibitors
# Recombinant human prolyl oligopeptidase was used for measurement. Recombinant expression was performed in E. coli under standard conditions as described elsewhere in the state of the art.
# For activity measurements the chromogenic substrate Z-Gly-Pro-pNA was used in HEPES buffer pH 7.6 containing 50 mM HEPES, 200 mM NaCl, 1 mM EDTA, 1 mM DTT, 0.006% Brij35. Measurements were carried out at 30° C. Release of pNA were monitored continuously at 405 nm.
# IC50 values were calculated using non-linear regression to a 4-parameter equation (Prism 4.0, GraphPad).
# For Ki determination 4 substrate (0.15 mM, 0.08 mM 0.04 mM, 0.02 mM) and 7 inhibitor concentrations in an appropriate range were used. Calculations were performed by multiple non-linear regression analysis to the equation for competitive inhibition using GraFit 5.0 Software (Erithacus Software).
# U-343 and SH-SY5Y cells = assay: β-Amyloid ELISA, secreted β-amyloid peptides 1-40 and 1-42; type: cell-based; details: Homo sapiens, inhibitor 20 μM, 24 hours, conditioned medium, untreated cells = 100%, cell line and peptide (1-40/1-42) not given, read-out: Extracellular Aβ-concentration, % of control
# Protocol: The human glioma cell line, U-343 and the human neuroblastoma cell line, SH-SY5Y were maintained in Dulbecco's modified Eagle's medium (DMEM) containing 10% fetal bovine serum (Gibco BRL, Karlsruhe, Germany) and incubated at 37° C. in a 5% CO2 atmosphere. Culture media contained in general 60 μg/ml gentamycin (Gibco BRL, Karlsruhe, Germany).
# To quantify intracellular and extracellular concentrations of 0-amyloid peptides, 1-40 and 1-42, U-343 and SH-SY5Y cells were cultured in 6 well plates (1.5×10^6 cells/well) and treated with specific PEP inhibitors (20 μM each) for 24 hours. For quantitation of secreted β-amyloid peptides the conditioned medium was collected and concentrated by lyophylisation. Likewise, after determination of the cell numbers/well (casy cell counter I, Schärfe System, Reutlingen, Germany), cells were lyzed with cell extraction buffer (Biosource, Solingen, Germany) according to the manufacturer's protocol. The protein concentration was determined by the method of Bradford (1976). Aliquots of 100 μl were used to quantify β-amyloid peptides 1-40 and 1-42 in quadruplicate by ELISA (IBL, Hamburg, Germany) following the manufacturer's instructions. All obtained intracellular and extracellular concentrations were normalized to cell numbers and protein concentration, respectively.
# For the calculation of the concentration of β-amyloid peptides 1-40 and 1-42 in the cell culture medium after PEP-inhibitor treatment, the basal concentration of β-amyloid peptides 1-40 and 1-42 in the cell culture medium of untreated cell samples was set to 100%. The results of the measurement of the concentration of β-amyloid peptides 1-40 and 1-42 with PEP-inhibitor treated cells are presented as % of the untreated cell samples.
# human glial U-343 cells = assay: IL-6 ELISA, basal secretion of IL-6; type: cell-based; details: inhibitor 20 μM, 24 hours, serum-free medium, untreated control = 100%, read-out: Extracellular IL-6 concentration, % of untreated cells
# Protocol: To analyze basal secretion of IL-6, human glial U-343 cells were cultured in 6 well plates (1.5×10^6 cells/well, Greiner) and treated with specific PEP inhibitors as indicated (20 μM each) for 24 hours in serum-free D-MEM medium (invitrogen). Aliquots of 40 μl conditioned medium were used to quantify the amount of secreted IL-6 by an human-specific IL-6 ELISA (Biosource) following the manufacturer's instructions. All data were obtained in quadruplicate. For the calculation of the IL-6 concentration in the cell culture medium after PEP-inhibitor treatment, the basal IL-6 concentration of the cell culture medium of untreated cell samples was set to 100%. The results of the measurement of the IL-6 concentration with PEP-inhibitor treated cells are presented as % of the untreated cell samples.
Compound,IC50 [1],activity at 20 µM (U-343 and SH-SY5Y cells) [%],activity at 20 µM (human glial U-343 cells) [%]
O=C(OCN1C(=O)c2ccccc2C1=O)c1ccccc1C(=O)c1cccs1 [Example 9],n.i.,113,124
COc1cccc(COC(=O)c2ccccc2C(=O)c2cccs2)c1 [Example 18],n.i.,106,63.3
